Assay in all cases: growth of human tumour cells (NCI), 48 h
Experiment [1] concerns HOP-62 NSCLC.
The test system of experiment [2] is HOP-92 NSCLC.
Experiment [3] relates to HT29 colon.
Experiment [4] relates to SR leukemia.
For experiment [5], the system named is T-47D breast.
The test system of experiment [6] is TK-10 renal.
Experiment [7] has as its system MALME-3M melanoma.
Experiment [8] deals with MOLT-4 leukemia.

This is an account of results in PubChem BioAssay (NCI).

Molecules are shown by their SMILES. Where “and” joins values, the source holds several entries; their conditions need not be identical. Equal values may be shown once.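 How tested: cells in 96-well plates exposed to compound for 48 hours at five concentrations. The concentration for 50% growth inhibition is given as GI50. TGI: concentration producing complete growth inhibition.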

In the case of `C=C1C(=O)C2(C)OC2(C)C1C(=O)O` (configuration not stated), the TGI in experiment [1], in experiment [2], in experiment [3], in experiment [4], in experiment [5] and in experiment [6] was > 100 µM each time.
`CC(=O)C(C=O)C(C)=O.CC(=O)CC(C)=O.CC(=O)CC(C)=O.[Ru]`: the GI50 in experiment [1] was 32.4 µM; in experiment [2], 17.4 µM; in experiment [3] it was 21 µM; in experiment [7], 24.6 µM; in experiment [8], 28.6 µM; in experiment [4], 18.2 µM. For the same molecule, the GI50 is 32.7 µM in experiment [5] and 38.9 µM in experiment [6]. The TGI in experiment [1] was > 100 µM; in experiment [2], 94.1 µM; in experiment [3], > 100 µM; in experiment [7] it was 96.9 µM; in experiment [8], > 100 µM; in experiment [4], 92.6 µM. Moreover, the TGI in experiment [5] and in experiment [6] was > 100 µM throughout.
In the case of `COC(=O)C1(C)CCCC2(C)c3cc(OC)ccc3C(=O)C(Br)C12` (configuration not stated), the TGI in experiment [1] is > 10 µM; in experiment [2], > 10 µM; in experiment [3], > 10 µM; in experiment [7] it was 9.71 µM; in experiment [8], 4.17 µM; in experiment [4] it was > 10 µM. The TGI in experiment [5] and in experiment [6] was > 10 µM throughout.
As to `N=C1C(c2nc3ccccc3s2)=C(O)CN1c1cc(Cl)cc(Cl)c1`, the GI50 in experiment [1] is 46.7 µM; in experiment [2] it was 59.3 µM; in experiment [3] it was > 100 µM; in experiment [7], 29.4 µM; in experiment [8], > 100 µM; in experiment [4], > 100 µM. In addition, the GI50 in experiment [5] and in experiment [6] was > 100 µM in each case. Moreover, the TGI in experiment [1], in experiment [2], in experiment [3], in experiment [7], in experiment [8] and in experiment [4] was > 100 µM each time. Further, the TGI in experiment [5] and in experiment [6] was > 100 µM throughout.
For `C#Cc1ccc(-n2c(/C=C/c3ccc4ccccc4c3)nc3ncccc3c2=O)cc1`, the GI50 is 7.45 µM in experiment [1]; 1.63 µM in experiment [2]; 3.26 µM in experiment [3]; 4.97 µM in experiment [7]; 2 µM in experiment [8]; 1.4 µM in experiment [4]. In addition, the GI50 in experiment [5] is 3.9 µM; in experiment [6], 4.04 µM. Further, the TGI is > 100 µM in experiment [1]; 6.89 µM in experiment [2]; > 100 µM in experiment [3]; > 100 µM in experiment [7]; > 100 µM in experiment [8]; > 100 µM in experiment [4]. Further, the TGI in experiment [5] and in experiment [6] was > 100 µM in each case.
For `CC12CC(=O)C3C(CCC4=CC(=O)CCC43C)C1CC=C2CC(=O)O` (configuration not stated), the TGI in experiment [1], in experiment [2], in experiment [3], in experiment [7], in experiment [8] and in experiment [4] was > 100 µM throughout. In addition, the TGI in experiment [5] and in experiment [6] was > 100 µM each time.
With `COc1ccc(-c2nc3sccn3c2-c2ccnc(NCCCNS(=O)(=O)c3ccc(F)cc3)n2)cc1`, the GI50 in experiment [1] is 4.15 µM; in experiment [2], 1.75 µM; in experiment [3], 2.16 µM; in experiment [7] it was 2.6 µM; in experiment [8], 1.9 µM; in experiment [4] it was 3.17 µM. Moreover, the results for the GI50 in experiment [5] and in experiment [6] were 0.866 µM and 3.92 µM, respectively. In addition, the TGI in experiment [1] was 23.7 µM; in experiment [2], > 100 µM; in experiment [3], > 100 µM; in experiment [7] it was 7.86 µM; in experiment [8] it was 7.67 µM; in experiment [4] it was > 100 µM. For the same molecule, the TGI is 4.87 µM in experiment [5] and > 100 µM in experiment [6].
For `COc1cc(-c2nn(-c3cccc(NC(=O)CCN4CCN(C)CC4)c3)cc2-c2ccncc2)ccc1Cl`, the GI50 in experiment [1] is 1.36 µM; in experiment [2], 0.675 µM; in experiment [3], 0.371 µM; in experiment [7], 0.847 µM; in experiment [8], 1.44 µM; in experiment [4], 0.471 µM. For the same molecule, the values for the GI50 in experiment [5] and in experiment [6] were 2.34 µM and 3.8 µM, respectively. Also, the TGI stood at 4.38 µM in experiment [1]; 6.42 µM in experiment [2]; 1.64 µM in experiment [3]; 2.36 µM in experiment [7]; 4.89 µM in experiment [8]; 2.64 µM in experiment [4]. For the same molecule, the TGI in experiment [5] turned out to be 10.1 µM; in experiment [6], 14.6 µM.
In the case of `O=c1[nH]c(SCc2ccccc2[N+](=O)[O-])nc2nc[nH]c12`, the TGI in experiment [1], in experiment [2], in experiment [3], in experiment [7], in experiment [8] and in experiment [4] was > 100 µM throughout. In addition, the TGI in experiment [5] and in experiment [6] was > 100 µM each time.
Turning to `N#Cc1ccc(/C=C/C(=O)c2ccccc2)cc1`, the GI50 is 22 µM and 18.4 µM in experiment [1]; 16.9 µM and 17.6 µM in experiment [2]; 2.33 µM and 2.53 µM in experiment [3]; 18.2 µM and 14.9 µM in experiment [7]; 9.4 µM and 6.4 µM in experiment [8]; 1.88 µM and 1.52 µM in experiment [4]. Further, the GI50 was 11.1 µM and 12.2 µM in experiment [5]; 14.2 µM and 12.1 µM in experiment [6]. Also, the TGI in experiment [1] was > 54.9 µM and 33.8 µM; in experiment [2], 65.5 µM and 39 µM; in experiment [3], 6.05 µM and 7 µM; in experiment [7], 33.6 µM and 31 µM; in experiment [8], 53.3 µM and > 38.9 µM; in experiment [4] it was 6.11 µM. Moreover, the TGI was 24.7 µM and 27.7 µM in experiment [5]; 28.2 µM and 26 µM in experiment [6].
For the molecule `Fc1ccc(-c2c(-c3ccncc3)[nH]c3nccnc23)cc1`, the GI50 in experiment [1] was > 15.3 µM; in experiment [2], > 25 µM; in experiment [3] it was 6.41 µM; in experiment [7], > 9.39 µM; in experiment [8], > 25 µM; in experiment [4], 8.79 µM. Besides, the GI50 is 7.09 µM in experiment [5] and 5.94 µM in experiment [6]. In addition, the TGI in experiment [1] is > 25 µM; in experiment [2], > 25 µM; in experiment [3], > 25 µM; in experiment [7], > 17.4 µM; in experiment [8], > 25 µM; in experiment [4] it was > 25 µM. In addition, the TGI in experiment [5] is > 25 µM; in experiment [6], > 21.6 µM.
